# Several values for one entry are separate records, joined by “and”; a condition that tells them apart may be missing. Identical values can stand only once. Toxic doses and inconclusive results are not listed.
# Tested on: P388 leukemia ip, CD2F1 mice, survival T/C
# Experiment: NCI In Vivo Anticancer Drug Screen. Data for tumor model P388 Leukemia (intraperitoneal) in CD2F1 (CDF1) mice
# Conditions: endpoint: median survival time, higher = longer survival
# In short: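 Mice carrying the transplanted tumor received test compound or vehicle. Survival was recorded in each group, and the value is the treated-group measurement divided by that of the vehicle-treated control group.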
# [1] = dose: 50.0 mg/kg/injection, schedule: Q01DX009 (ip), vehicle: Klucel (hydroxypropylcellulose) (HPC)
# [2] = dose: 200.0 mg/kg/injection, schedule: Q01DX009 (ip), vehicle: Klucel (hydroxypropylcellulose) (HPC)
smiles,measurement,setting,value
COC(=O)/C(C(C)=O)=C1\C(=O)OCC1(C)C,T/C,"dose: 100.0 mg/kg/injection, schedule: Q04DX003 (ip), vehicle: saline",102 % of control
same,T/C,"dose: 200.0 mg/kg/injection, schedule: Q04DX003 (ip), vehicle: saline",105 % of control
same,T/C,"dose: 400.0 mg/kg/injection, schedule: Q04DX003 (ip), vehicle: saline",100 % of control
CC1(C)N=C(N)N=C(N)N1c1ccc(CCc2ccc(S(=O)(=O)F)cc2)c(Cl)c1,T/C,"dose: 25.0 mg/kg/injection, schedule: Q04DX003 (ip), vehicle: saline with Tween-80",118 % of control
same,T/C,"dose: 33.0 mg/kg/injection, schedule: Q04DX003 (ip), vehicle: saline sonified",118 % of control
same,T/C,"dose: 50.0 mg/kg/injection, schedule: Q04DX003 (ip), vehicle: saline sonified",118 % of control
same,T/C,"dose: 100.0 mg/kg/injection, schedule: Q04DX003 (ip), vehicle: saline with Tween-80",113 % of control
CN1CC2c3cc4c(cc3CC1c1cc3c(cc12)OCO3)OCO4 (stereo not drawn),T/C,"dose: 100.0 mg/kg/injection, schedule: Q01DX001 (ip), vehicle: saline with Tween-80",108 % of control
same,T/C,"dose: 200.0 mg/kg/injection, schedule: Q01DX001 (ip), vehicle: saline with Tween-80",108 % of control
Cc1cc(C)n(C(N)=NC(=O)c2ccccc2)n1,T/C,[1],104 % of control and 106 % of control
same,T/C,"dose: 100.0 mg/kg/injection, schedule: Q01DX009 (ip), vehicle: Klucel (hydroxypropylcellulose) (HPC)",100 % of control
same,T/C,[2],109 % of control
CCOC(=O)CN1CN(CCCN(C)C)CC(C)(C)C1OCC (stereo not drawn),T/C,"dose: 15.0 mg/kg/injection, schedule: Q01DX009 (ip), vehicle: saline with Tween-80",108 % of control
same,T/C,"dose: 30.0 mg/kg/injection, schedule: Q01DX009 (ip), vehicle: saline with Tween-80",98 % of control
same,T/C,"dose: 60.0 mg/kg/injection, schedule: Q01DX009 (ip), vehicle: saline with Tween-80",99 % of control
CCc1ccc2c(c1)N(CCCN(CCCl)CCCl)c1ccccc1S2,T/C,"dose: 0.78 mg/kg/injection, schedule: Q01DX009 (ip), vehicle: saline with Tween-80",106 % of control
same,T/C,"dose: 1.56 mg/kg/injection, schedule: Q01DX009 (ip), vehicle: saline with Tween-80",101 % of control and 115 % of control
CSC(=S)/N=c1\ccc(C)cn1C,T/C,"dose: 12.5 mg/kg/injection, schedule: Q04DX002 (ip), vehicle: saline with Tween-80",100 % of control
same,T/C,"dose: 25.0 mg/kg/injection, schedule: Q04DX002 (ip), vehicle: saline with Tween-80",100 % of control
same,T/C,"dose: 50.0 mg/kg/injection, schedule: Q04DX002 (ip), vehicle: saline with Tween-80",99 % of control
COc1ccc2ccc(CO)cc2c1OC,T/C,"dose: 25.0 mg/kg/injection, schedule: Q01DX009 (ip), vehicle: other",98 % of control
same,T/C,"dose: 50.0 mg/kg/injection, schedule: Q01DX009 (ip), vehicle: other",92 % of control
same,T/C,"dose: 100.0 mg/kg/injection, schedule: Q01DX009 (ip), vehicle: other",90 % of control
same,T/C,"dose: 200.0 mg/kg/injection, schedule: Q01DX009 (ip), vehicle: other",99 % of control
same,T/C,"dose: 400.0 mg/kg/injection, schedule: Q01DX009 (ip), vehicle: other",90 % of control
O=C1C(F)=C(N2CC2)C(=O)C(F)=C1N1CC1,T/C,"dose: 1.56 mg/kg/injection, schedule: Q01DX009 (ip), vehicle: saline",115 % of control
same,T/C,"dose: 3.12 mg/kg/injection, schedule: Q01DX009 (ip), vehicle: saline",114 % of control
same,T/C,"dose: 6.25 mg/kg/injection, schedule: Q01DX009 (ip), vehicle: saline",150 % of control
CC(=N\O)/C(C)=N/Nc1ccccc1Cl,T/C,"dose: 50.0 mg/kg/injection, schedule: Q01DX009 (ip), vehicle: saline",98 % of control
same,T/C,"dose: 100.0 mg/kg/injection, schedule: Q01DX009 (ip), vehicle: saline",104 % of control
same,T/C,"dose: 200.0 mg/kg/injection, schedule: Q01DX009 (ip), vehicle: saline",89 % of control
Cc1cc(N2C(=O)CCSC2=S)ccc1Cl,T/C,"dose: 12.5 mg/kg/injection, schedule: Q01DX009 (ip), vehicle: Klucel (hydroxypropylcellulose) (HPC)",120 % of control
same,T/C,"dose: 25.0 mg/kg/injection, schedule: Q01DX009 (ip), vehicle: Klucel (hydroxypropylcellulose) (HPC)",119 % of control
same,T/C,[1],109 % of control and 114 % of control
same,T/C,"dose: 50.0 mg/kg/injection, schedule: Q01DX009 (ip), vehicle: suspension in saline",97 % of control
same,T/C,"dose: 100.0 mg/kg/injection, schedule: Q01DX009 (ip), vehicle: suspension in saline",90 % of control
same,T/C,[2],102 % of control
same,T/C,"dose: 200.0 mg/kg/injection, schedule: Q01DX009 (ip), vehicle: suspension in saline",92 % of control
N#CNC1=NCOCN1,T/C,"dose: 60.0 mg/kg/injection, schedule: Q01DX005 (ip), vehicle: saline with Tween-80",100 % of control
same,T/C,"dose: 120.0 mg/kg/injection, schedule: Q01DX005 (ip), vehicle: saline with Tween-80",100 % of control
CC1(C)COC2(C)ON12 (stereo not drawn),T/C,"dose: 50.0 mg/kg/injection, schedule: Q01DX005 (ip), vehicle: saline with Tween-80",106 % of control
same,T/C,"dose: 100.0 mg/kg/injection, schedule: Q01DX005 (ip), vehicle: saline with Tween-80",117 % of control
same,T/C,"dose: 200.0 mg/kg/injection, schedule: Q01DX005 (ip), vehicle: saline with Tween-80",113 % of control
